Results published in PubChem BioAssay (NCI).
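Dose response: 5 concentrations. Exposure: 48 h. Format: 96-well plates. Endpoint: linear interpolation; highest concentration if not reached. The concentration for 50% growth inhibition is given as GI50. TGI is the concentration that stops growth completely.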

Assays:
Experiment in all cases: growth of human tumour cells (NCI), 48 h
786-0 renal = system: 786-0 renal
A498 renal = system: A498 renal
A549 NSCLC = system: A549 NSCLC
ACHN renal = system: ACHN renal
BT-549 breast = system: BT-549 breast
CAKI-1 renal = system: CAKI-1 renal
CCRF-CEM leukemia = system: CCRF-CEM leukemia
COLO 205 colon = system: COLO 205 colon
DU-145 prostate = system: DU-145 prostate
EKVX NSCLC = system: EKVX NSCLC
HCT-116 colon = system: HCT-116 colon
HCT-15 colon = system: HCT-15 colon
HL-60(TB) leukemia = system: HL-60(TB) leukemia
HOP-62 NSCLC = system: HOP-62 NSCLC
HOP-92 NSCLC = system: HOP-92 NSCLC
HS 578T breast = system: HS 578T breast
HT29 colon = system: HT29 colon
IGROV1 ovarian = system: IGROV1 ovarian
K-562 leukemia = system: K-562 leukemia
KM12 colon = system: KM12 colon
LOX IMVI melanoma = system: LOX IMVI melanoma
M14 melanoma = system: M14 melanoma
MALME-3M melanoma = system: MALME-3M melanoma
MCF7 breast = system: MCF7 breast
MDA-MB-231 breast = system: MDA-MB-231 breast
MDA-MB-435 = system: MDA-MB-435
MOLT-4 leukemia = system: MOLT-4 leukemia
NCI-H226 lung = system: NCI-H226 lung
NCI-H23 lung = system: NCI-H23 lung
NCI-H460 lung = system: NCI-H460 lung
NCI/ADR-RES ovarian = system: NCI/ADR-RES ovarian
OVCAR-3 ovarian = system: OVCAR-3 ovarian
OVCAR-4 ovarian = system: OVCAR-4 ovarian
OVCAR-5 ovarian = system: OVCAR-5 ovarian
OVCAR-8 ovarian = system: OVCAR-8 ovarian
PC-3 prostate = system: PC-3 prostate
RPMI-8226 leukemia = system: RPMI-8226 leukemia
RXF 393 renal = system: RXF 393 renal
SF-268 CNS = system: SF-268 CNS
SF-295 CNS = system: SF-295 CNS
SF-539 CNS = system: SF-539 CNS
SK-MEL-2 melanoma = system: SK-MEL-2 melanoma
SK-MEL-28 melanoma = system: SK-MEL-28 melanoma
SK-MEL-5 melanoma = system: SK-MEL-5 melanoma
SK-OV-3 ovarian = system: SK-OV-3 ovarian
SN12C renal = system: SN12C renal
SNB-19 CNS = system: SNB-19 CNS
SNB-75 CNS = system: SNB-75 CNS
SW-620 colon = system: SW-620 colon
T-47D breast = system: T-47D breast
TK-10 renal = system: TK-10 renal
U251 CNS = system: U251 CNS
UACC-257 melanoma = system: UACC-257 melanoma
UACC-62 melanoma = system: UACC-62 melanoma
UO-31 renal = system: UO-31 renal
NCI-H522 lung = system: NCI-H522 lung

SMILES: NC(CSSCC(N)C(=O)O)C(=O)O (centres undefined)
- GI50 (786-0 renal): > 100 µM
- TGI (786-0 renal): > 100 µM
- GI50 (A498 renal): > 100 µM
- TGI (A498 renal): > 100 µM
- GI50 (A549 NSCLC): > 100 µM
- TGI (A549 NSCLC): > 100 µM
- GI50 (ACHN renal): > 100 µM
- TGI (ACHN renal): > 100 µM
- GI50 (BT-549 breast): > 100 µM
- TGI (BT-549 breast): > 100 µM
- GI50 (CAKI-1 renal): > 100 µM
- TGI (CAKI-1 renal): > 100 µM
- GI50 (CCRF-CEM leukemia): > 100 µM
- TGI (CCRF-CEM leukemia): > 100 µM
- GI50 (COLO 205 colon): > 100 µM
- TGI (COLO 205 colon): > 100 µM
- GI50 (DU-145 prostate): > 100 µM
- TGI (DU-145 prostate): > 100 µM
- GI50 (EKVX NSCLC): > 100 µM
- TGI (EKVX NSCLC): > 100 µM
- GI50 (HCT-116 colon): > 100 µM
- TGI (HCT-116 colon): > 100 µM
- GI50 (HCT-15 colon): > 100 µM
- TGI (HCT-15 colon): > 100 µM
- GI50 (HL-60(TB) leukemia): > 100 µM
- TGI (HL-60(TB) leukemia): > 100 µM
- GI50 (HOP-62 NSCLC): > 100 µM
- TGI (HOP-62 NSCLC): > 100 µM
- GI50 (HOP-92 NSCLC): > 100 µM
- TGI (HOP-92 NSCLC): > 100 µM
- GI50 (HS 578T breast): > 100 µM
- TGI (HS 578T breast): > 100 µM
- GI50 (HT29 colon): > 100 µM
- TGI (HT29 colon): > 100 µM
- GI50 (IGROV1 ovarian): > 100 µM
- TGI (IGROV1 ovarian): > 100 µM
- GI50 (K-562 leukemia): > 100 µM
- TGI (K-562 leukemia): > 100 µM
- GI50 (KM12 colon): > 100 µM
- TGI (KM12 colon): > 100 µM
- GI50 (LOX IMVI melanoma): > 100 µM
- TGI (LOX IMVI melanoma): > 100 µM
- GI50 (M14 melanoma): > 100 µM
- TGI (M14 melanoma): > 100 µM
- GI50 (MALME-3M melanoma): > 100 µM
- TGI (MALME-3M melanoma): > 100 µM
- GI50 (MCF7 breast): > 100 µM
- TGI (MCF7 breast): > 100 µM
- GI50 (MDA-MB-231 breast): > 100 µM
- TGI (MDA-MB-231 breast): > 100 µM
- GI50 (MDA-MB-435): > 100 µM
- TGI (MDA-MB-435): > 100 µM
- GI50 (MOLT-4 leukemia): > 100 µM
- TGI (MOLT-4 leukemia): > 100 µM
- GI50 (NCI-H226 lung): > 100 µM
- TGI (NCI-H226 lung): > 100 µM
- GI50 (NCI-H23 lung): > 100 µM
- TGI (NCI-H23 lung): > 100 µM
- GI50 (NCI-H460 lung): > 100 µM
- TGI (NCI-H460 lung): > 100 µM
- GI50 (NCI/ADR-RES ovarian): > 100 µM
- TGI (NCI/ADR-RES ovarian): > 100 µM
- GI50 (OVCAR-3 ovarian): > 100 µM
- TGI (OVCAR-3 ovarian): > 100 µM
- GI50 (OVCAR-4 ovarian): > 100 µM
- TGI (OVCAR-4 ovarian): > 100 µM
- GI50 (OVCAR-5 ovarian): > 100 µM
- TGI (OVCAR-5 ovarian): > 100 µM
- GI50 (OVCAR-8 ovarian): > 100 µM
- TGI (OVCAR-8 ovarian): > 100 µM
- GI50 (PC-3 prostate): > 100 µM
- TGI (PC-3 prostate): > 100 µM
- GI50 (RPMI-8226 leukemia): > 100 µM
- TGI (RPMI-8226 leukemia): > 100 µM
- GI50 (RXF 393 renal): > 100 µM
- TGI (RXF 393 renal): > 100 µM
- GI50 (SF-268 CNS): > 100 µM
- TGI (SF-268 CNS): > 100 µM
- GI50 (SF-295 CNS): > 100 µM
- TGI (SF-295 CNS): > 100 µM
- GI50 (SF-539 CNS): > 100 µM
- TGI (SF-539 CNS): > 100 µM
- GI50 (SK-MEL-2 melanoma): > 100 µM
- TGI (SK-MEL-2 melanoma): > 100 µM
- GI50 (SK-MEL-28 melanoma): > 100 µM
- TGI (SK-MEL-28 melanoma): > 100 µM
- GI50 (SK-MEL-5 melanoma): > 100 µM
- TGI (SK-MEL-5 melanoma): > 100 µM
- GI50 (SK-OV-3 ovarian): > 100 µM
- TGI (SK-OV-3 ovarian): > 100 µM
- GI50 (SN12C renal): > 100 µM
- TGI (SN12C renal): > 100 µM
- GI50 (SNB-19 CNS): > 100 µM
- TGI (SNB-19 CNS): > 100 µM
- GI50 (SNB-75 CNS): > 100 µM
- TGI (SNB-75 CNS): > 100 µM
- GI50 (SW-620 colon): > 100 µM
- TGI (SW-620 colon): > 100 µM
- GI50 (T-47D breast): > 100 µM
- TGI (T-47D breast): > 100 µM
- GI50 (TK-10 renal): > 100 µM
- TGI (TK-10 renal): > 100 µM
- GI50 (U251 CNS): > 100 µM
- TGI (U251 CNS): > 100 µM
- GI50 (UACC-257 melanoma): > 100 µM
- TGI (UACC-257 melanoma): > 100 µM
- GI50 (UACC-62 melanoma): > 100 µM
- TGI (UACC-62 melanoma): > 100 µM
- GI50 (UO-31 renal): > 100 µM
- TGI (UO-31 renal): > 100 µM

SMILES: C=Cn1c([N+](=O)[O-])cnc1/C=C/c1ccc(C(=O)OCCN2CCOCC2)cc1
- TGI (786-0 renal): > 100 µM
- TGI (A498 renal): > 100 µM
- TGI (A549 NSCLC): > 100 µM
- TGI (ACHN renal): > 100 µM
- TGI (BT-549 breast): > 100 µM
- TGI (CAKI-1 renal): > 100 µM
- TGI (CCRF-CEM leukemia): > 100 µM
- TGI (COLO 205 colon): > 100 µM
- TGI (DU-145 prostate): > 100 µM
- TGI (EKVX NSCLC): > 100 µM
- TGI (HCT-116 colon): > 100 µM
- TGI (HCT-15 colon): > 100 µM
- TGI (HOP-62 NSCLC): > 100 µM
- TGI (HOP-92 NSCLC): > 100 µM
- TGI (HS 578T breast): > 100 µM
- TGI (HT29 colon): > 100 µM
- TGI (IGROV1 ovarian): > 100 µM
- TGI (K-562 leukemia): > 100 µM
- TGI (KM12 colon): > 100 µM
- TGI (LOX IMVI melanoma): > 100 µM
- TGI (M14 melanoma): > 100 µM
- TGI (MALME-3M melanoma): > 100 µM
- TGI (MCF7 breast): > 100 µM
- TGI (MDA-MB-231 breast): > 100 µM
- TGI (MDA-MB-435): > 100 µM
- TGI (MOLT-4 leukemia): > 100 µM
- TGI (NCI-H226 lung): > 100 µM
- TGI (NCI-H23 lung): > 100 µM
- TGI (NCI-H460 lung): > 100 µM
- TGI (NCI-H522 lung): > 100 µM
- TGI (NCI/ADR-RES ovarian): > 100 µM
- TGI (OVCAR-3 ovarian): > 100 µM
- TGI (OVCAR-4 ovarian): > 100 µM
- TGI (OVCAR-5 ovarian): > 100 µM
- TGI (OVCAR-8 ovarian): > 100 µM
- TGI (PC-3 prostate): > 100 µM
- TGI (RPMI-8226 leukemia): 78.4 µM
- TGI (RXF 393 renal): > 100 µM
- TGI (SF-268 CNS): > 100 µM
- TGI (SF-295 CNS): > 100 µM
- TGI (SF-539 CNS): > 100 µM
- TGI (SK-MEL-2 melanoma): > 100 µM
- TGI (SK-MEL-28 melanoma): > 100 µM
- TGI (SK-MEL-5 melanoma): > 100 µM
- TGI (SK-OV-3 ovarian): > 100 µM
- TGI (SN12C renal): > 100 µM
- TGI (SNB-19 CNS): > 100 µM
- TGI (SNB-75 CNS): > 100 µM
- TGI (SW-620 colon): > 100 µM
- TGI (T-47D breast): > 100 µM
- TGI (TK-10 renal): > 100 µM
- TGI (U251 CNS): > 100 µM
- TGI (UACC-257 melanoma): > 100 µM
- TGI (UACC-62 melanoma): > 100 µM
